Measurements taken from publication PMC8634379, “From the Design to the In Vivo Evaluation of Benzohomoadamantane-Derived Soluble Epoxide Hydrolase Inhibitors for the Treatment of Acute Pancreatitis” (Journal of Medicinal Chemistry, 2021).

Legend:
human sEH (hsEH) = molecular target: T1, human sEH (hsEH) (Homo sapiens, UniProt P34913); assay: sEH inhibition, fluorescent-based assay (CMNPC substrate); type: biochemical; settings: for fold difference (decrease) in hsEH potency: 17 vs 16 (oxygen for methylene), 18 vs 17 (hydrogen for methyl)
T1 sequence (P34913 1-555): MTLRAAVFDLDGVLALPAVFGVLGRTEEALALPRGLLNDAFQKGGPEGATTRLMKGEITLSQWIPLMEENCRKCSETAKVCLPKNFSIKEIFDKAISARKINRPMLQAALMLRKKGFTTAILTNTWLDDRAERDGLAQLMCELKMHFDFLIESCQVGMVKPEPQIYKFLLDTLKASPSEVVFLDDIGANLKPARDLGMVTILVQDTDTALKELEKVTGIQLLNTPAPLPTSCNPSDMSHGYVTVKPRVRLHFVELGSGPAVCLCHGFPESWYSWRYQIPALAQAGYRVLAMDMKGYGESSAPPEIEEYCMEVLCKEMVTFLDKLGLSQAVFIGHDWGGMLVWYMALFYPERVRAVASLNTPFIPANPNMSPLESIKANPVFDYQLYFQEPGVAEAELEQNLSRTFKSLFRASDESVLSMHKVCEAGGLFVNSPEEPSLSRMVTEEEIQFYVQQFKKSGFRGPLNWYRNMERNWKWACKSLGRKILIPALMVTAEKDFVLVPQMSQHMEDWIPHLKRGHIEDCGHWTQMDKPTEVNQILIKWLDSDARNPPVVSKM
Description: The IC50 values reported herein were determined using a fluorescent-based assay (CMNPC as substrate).[16] The fluorescent assay was used with purified recombinant human, mouse, or rat sEH proteins. The enzymes were incubated at 30 °C with the inhibitors ([I]final = 0.4–100,000 nM) for 5 min in 100 mM sodium phosphate buffer (200 μL, pH 7.4) containing 0.1 mg/mL of BSA and 1% of DMSO. The substrate (CMNPC) was then added ([S]final = 5 μM). […] Results were obtained by regression analysis from a linear region of the curve.

Microsomal stability [1] = settings: after 60 min incubation, NADP, 37 °C
Description: (§1) The human, rat, and mice recombinant microsomes employed were purchased from Tebu–Xenotech. […] Samples (75 μL) were taken from each well at 0, 10, 20, 40, and 60 min and transferred to a plate containing 4 °C 75 μL of acetonitrile and 30 μL of 0.5% formic acid in water were added for improving the chromatographic conditions. The plate was centrifuged ([…], 30 min) and supernatants were taken and analyzed by an ultraperformance liquid chromatograph–tandem mass spectrometer (Xevo-TQD, Waters) by employing a BEH C18 column and an isocratic gradient of 0.1% formic acid in water: 0.1% formic acid acetonitrile (60:40). The metabolic stability of the compounds was calculated from the logarithm of the remaining compounds at each of the time points studied.

Microsomal stability [2] = type: in vitro ADME, mice; settings: after 60 min incubation, NADP, 37 °C
Description: as §1

Microsomal stability [3] = type: in vitro ADME, human; settings: after 60 min incubation, NADP, 37 °C
Description: as §1

[4] = purified recombinant enzyme, average of three replicates

CC(=O)N1CCC(NC(=O)NC23CC4CC(C)(CC(C2)c2ccccc24)O3)CC1 [Compound 17, 1-(1-Acetylpiperidin-4-yl)-3-(5-methyl-1,5,6,7-tetrahydro-1,5:3,7-dimethanobenzo[e]oxonin-3(2H)-yl)urea]
fold difference (decrease) in hsEH potency (human sEH (hsEH)): 300 fold | IC50 (human sEH (hsEH); [4]): 941 nM

CC12CC3CC(NC(=S)Nc4ccc(C(F)(F)F)cc4)(CC(C1)c1ccccc13)C2 [Compound 9, 1-(9-Methyl-5,6,8,9,10,11-hexahydro-7H-5,9:7,11-dimethanobenzo[9]annulen-7-yl)-3-(4-(trifluoromethyl)phenyl)thiourea]
IC50 (human sEH (hsEH); [4]): 138 nM

CC(=O)N1CCC(NC(=O)NC23CC4CC(C)(CC(C2)c2ccccc24)C3)CC1 [Compound 16, 1-(1-Acetylpiperidin-4-yl)-3-(9-methyl-5,6,8,9,10,11-hexahydro-7H-5,9:7,11-dimethanobenzo[9]annulen-7-yl)urea]
microsomal stability, percentage of remaining compound (rat) (Microsomal stability [1]): less than 1%

CC12CC3CC(NC(=O)Nc4ccc(F)c(F)c4F)(CC(C1)c1ccccc13)O2 [Compound 14, 1-(5-Methyl-1,5,6,7-hexahydro-1,5:3,7-dimethanobenzo[e]oxonin-3(2H)-yl)-3-(2,3,4-trifluorophenyl)urea]
IC50 (human sEH (hsEH); [4]): 20 nM | microsomal stability, percentage of remaining compound (rat) (Microsomal stability [1]): 33% | microsomal stability, percentage of remaining compound (mice) (Microsomal stability [2]): 23% | microsomal stability, percentage of remaining compound (human) (Microsomal stability [3]): 77%

CC12CC3CC(NC(=O)Nc4ccc(F)c(F)c4F)(CC(C1)c1ccccc13)C2 [Compound 13, 1-(9-Methyl-5,6,8,9,10,11-hexahydro-7H-5,9:7,11-dimethanobenzo[9]annulen-7-yl)-3-(2,3,4-trifluorophenyl)urea]
IC50 (human sEH (hsEH); [4]): 1 nM | microsomal stability, percentage of remaining compound (mice) (Microsomal stability [2]): 0.2% | microsomal stability, percentage of remaining compound (human) (Microsomal stability [3]): 7%

Cc1ccc(OC(=O)NC23CC4CC(C)(CC(C2)c2ccccc24)C3)cc1 [Compound 11, p-Tolyl (9-Methyl-5,6,8,9,10,11-hexahydro-7H-5,9:7,11-dimethanobenzo[9]annulen-7-yl)carbamate]
IC50 (human sEH (hsEH); [4]): > 10000 nM | IC50 (human sEH (hsEH); value given in the text): 12700 nM

CC12CC3CC(NC(=O)N[C@H]4CC[C@H](Oc5ccc(C(=O)O)cc5)CC4)(CC(C1)c1ccccc13)O2 [Compound 21, 4-[((1r,4r)-4-(3-(5-Methyl-1,5,6,7-tetrahydro-1,5:3,7-Dimethanobenzo[e]oxonin-3(2H)-yl)ureido)cyclohexyl)oxy]benzoic Acid]
IC50 (human sEH (hsEH); [4]): 28 nM | microsomal stability, percentage of remaining compound (mice) (Microsomal stability [2]): 83% | microsomal stability, percentage of remaining compound (human) (Microsomal stability [3]): 90%

CC(=O)N1CCC(NC(=O)NC23CC4CC(CC(C2)c2ccccc24)O3)CC1 [Compound 18, 1-(1-Acetylpiperidin-4-yl)-3-(1,5,6,7-tetrahydro-1,5:3,7-dimethanobenzo[e]oxonin-3(2H)-yl)urea]
fold difference (decrease) in hsEH potency (human sEH (hsEH)): > 10 fold | IC50 (human sEH (hsEH); [4]): > 10000 nM
